The target in one test is T1, LXRβ (versus LXRα) (Homo sapiens, UniProt P55055).
T1 sequence (P55055 1-460): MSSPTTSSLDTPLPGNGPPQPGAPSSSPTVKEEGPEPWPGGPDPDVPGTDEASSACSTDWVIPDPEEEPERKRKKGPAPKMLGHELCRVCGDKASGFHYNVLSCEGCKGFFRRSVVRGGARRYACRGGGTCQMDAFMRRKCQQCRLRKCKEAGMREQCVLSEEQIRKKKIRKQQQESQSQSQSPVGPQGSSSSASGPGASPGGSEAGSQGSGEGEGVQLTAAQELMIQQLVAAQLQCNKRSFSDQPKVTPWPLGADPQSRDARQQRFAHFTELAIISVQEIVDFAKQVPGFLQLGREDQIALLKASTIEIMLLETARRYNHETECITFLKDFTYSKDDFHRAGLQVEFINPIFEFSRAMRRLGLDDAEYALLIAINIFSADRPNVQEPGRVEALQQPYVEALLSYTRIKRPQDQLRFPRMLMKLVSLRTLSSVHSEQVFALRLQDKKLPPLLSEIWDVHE
As to conditions: from Hu et al., Bioorg. Med. Chem. Lett., 18, pp. 54-59, 2008; cited from earlier work.

Test [1] concerns the target T2, LXRβ/GAL4 hybrid (LBD of human LXRβ), compared with LXRα/GAL4 (Homo sapiens, UniProt P55055).
T2 construct: expressed in transfected cells; host or cells: CHOK-1 cells stably expressing the hybrid and pG5luc
T2 sequence (P55055 222-460 limits assumed): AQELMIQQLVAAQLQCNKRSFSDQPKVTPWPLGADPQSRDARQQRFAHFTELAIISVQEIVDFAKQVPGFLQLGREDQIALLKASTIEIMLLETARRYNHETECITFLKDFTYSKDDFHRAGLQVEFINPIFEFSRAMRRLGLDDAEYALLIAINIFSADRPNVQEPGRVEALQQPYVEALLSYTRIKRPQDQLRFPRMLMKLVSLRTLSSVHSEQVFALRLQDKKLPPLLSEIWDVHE
As to the kind of experiment: Transactivation assay (GAL4-responsive luciferase reporter). It is filed as cell-based. As to conditions: CHOK-1 cells stably expressing LXRα/GAL4 or LXRβ/GAL4 and pG5luc; 0.01-10 μM, 24 hours; % eff relative to T0901317 at 10 μM = 100; data in FIGS. only. The source says: The ligand-binding domain (LBD) of a human LXRα and LXRβ cDNA was inserted adjacent to an yeast GAL4-transcription factor DNA-binding domain (DBD) of a mammal expression vector pBIND (Promega) to prepare an expression construct, thereby to produce pBIND-LXRα/GAL4 and pBIND-LXRβ/GAL4, respectively. PG5luc, a GAL4-responsive reporter construct, is a known vector that is available from Promega, and contains 5 copies of GAL4-response element located adjacent to the promoter as well as a luciferase reporter gene.
An LXRα/GAL4 or LXRβ/GAL4 hybrid and GAL4-responsive reporter vector pG5luc-stable-expression CHOK-1 cells were seeded under 5% CO2 wet atmosphere at 37° C., at 20,000 cells/well on a 96-well plate containing HAM-F12 medium containing 10% […] bovine fetal serum, 100 units/ml of penicillin G, and 100 μg/ml of streptomycin sulfate. […] By using Bright-Glo (Promega) as a luciferase assay substrate, and measuring the luminescence intensity with luminometer LB960 (Berthold Technologies), the effect of the test compound on the activation of luciferase transcription via the LXRα- or LXRβ-LBD was measured. At the same time, T0901317 (the compound of Example 12 of WO2000/54759) and WAY-254011 (compound 4 of Hu et al., Bioorg. Med. Chem. Lett., 18, pp. 54-59, 2008) were assessed as comparative compounds. […]

Take `O=C(O)Cc1ccc(COc2cccc(-c3c(Cc4ccccc4)cnc4c(C(F)(F)F)cccc34)c2)cc1` [WAY-254011]: the “LXRβ-selective binding affinity (α/β ratio)” value on LXRβ (versus LXRα) is recorded as 1 to 5. For the same compound, the “LXRβ-selective agonist effect (luciferase activity via LXRα- or LXRβ-LBD)” value in test [1] is on record as “not found to have an LXRβ-selective agonist effect”.

These data come from patent US8008306B2, “Quinoline compounds” (Kowa Company, Ltd., priority 2008, dated 2011).
